According to patent publication US11236102B2, “Oxabicycloheptane prodrugs” (Lixte Biotechnology, Inc., priority 2015, dated 2022):
Like-named read-outs stand apart in the source and are kept apart here.

How the values were obtained:
in vivo [1] = details: rat, iv, 1.4 mg/kg
Description: 113 was dissolved in 4% NaHCO3 in saline for IV administration. The detailed procedure of dosing solution preparation was presented in Appendix I.
15 animals were placed on the study. The animals in IV arm were free access to food and water. For PO dose group, the animals were fasted overnight prior to dosing and the food was resumed 4 hours postdose.
The IV injection was conducted via foot dorsal vein. PO via oral gavage.
Blood collection: The animal is restrained manually. Approximately 200 μL of blood/time point is collected into sodium heparin tube via cardiac puncture for terminal bleeding (anesthetized under carbon dioxide). Blood sample will be put on ice and centrifuged to obtain plasma sample (2000 g, 5 min under 4° C.) within 10 minutes.
Liver collection: The animal will be euthanized with carbon dioxide inhalation. Open abdominal cavity with scissor to expose internal organs. Hold the carcass in an upright position and allow the organs to fall forward. Cut the connective tissues and remove the organs. Then the organs are rinsed with cold saline, dried on filtrate paper, placed into a screw-top tube and weighed, snap frozen by placing into dry-ice immediately.
Brain collection: Make a mid-line incision in the animals scalp and retract the skin. Using small bone cutters and rongeurs, remove the skull overlying the brain. Remove the brain using a spatula and rinse with cold saline, dried on filtrate paper, placed into a screw-top tube and weighed, snap frozen by placing into dry-ice immediately. […] Plasma, brain and liver samples were stored at approximately −80° C. until analysis. The backup samples will be discarded after three weeks after in-life completion unless requested. The unused dosing solutions will be discarded within three weeks after completion of the study.
Pharmacokinetic Analysis Software: The PK parameters were determined by non-compartmental model of non-compartmental analysis tool, Pharsight Phoenix WinNonlin® 6.2 software. […] Concentration data within 80%-120% of LLOQ was considered within normal instrumental variation and presented in the results. Terminal t1/2 calculation: Time points were automatic selected by “best fit” model for terminal half life estimation as the first option. Manual selection was applied when “best fit” could not well define the terminal phase. Results

[2] = Pharmacokinetic study of 151 (iv, oral) in SD rats: 151 and 100 in plasma; assay type: in vivo; details: male, rat, in vivo, iv, 1 mg/kg, 5 h
Description: The absolute bioavailability was evaluated.
To each sample, 160 μL of acetonitrile were added.
The mass spectrometer was operated in the positive mode.
Quantification was achieved by the external standard method.
Calibration Curve for Plasma Samples
LB100 concentrations of the LB151 plasma samples were also measured and pharmacokinetic parameters were calculated.

in vivo [3] = assay type: in vivo; details: rat, in vivo
Description: 100 was administrated via iv route at 0.5, 1.0 and 1.5 mg/kg into SD rats. The blood, liver and brain tissue samples were collected at predetermined times from rats.
Twelve (12) female SD rats per group were dosed by iv with 100. The rats were fasted overnight prior to dosing, with free access to water. Foods were withheld for 2 hours post-dose. Blood, liver and brain tissue samples in two animals each group were collected at each time point, within 10% of the scheduled time for each time point. Two extra animals were used for analytic method development. Blood (>0.3 mL) were collected via aorta abdominalis in anaesthetic animals into tubes containing heparin at 15 min, 1, 2, 6, 10 and 24 hours after iv administration. Liver and brain tissues were collected immediately after animal death. The liver and brain tissues were excised and rinsed with cold saline to avoid blood residual. Upon collection, each sample was placed on ice and the blood samples were subsequently centrifuged (4° C., 11000 rpm, 5 min) to separate plasma. The obtained plasma, liver and brain tissue samples were stored at −70° C. until LC-MS/MS analysis.
AUC0-∞ (AUCINF) is the area under the plasma concentration-time curve with last concentration extrapolated based on the elimination rate constant.

[4] = tested on: PP2A in circulating white blood cells; assay: Inhibition of PP2A in circulating white blood cells after slow iv 100; assay type: in vivo; details: rat
[5] = tested on: broad spectrum of human cancer cell lines; assay: Activity of compound 100 against human cancer cell lines; assay type: cell-based
U251 human GBM cells = details: compound 100 ip plus radiation
Description: Compound 100 is a serine-threonine phosphatase inhibitor that potentiates the activity of standard chemotherapeutic drugs and radiation. The mechanism of potentiation is impairment of multiple steps in a DNA-damage repair process and inhibition of exit from mitosis. […] Mice bearing subcutaneous (sc) xenografts of U251 human GBM cells were treated with compound 100 intraperitoneally together with radiation, each given daily for 5 days×3 courses.

[6] = Stability in the presence of microsomes; assay type: in vitro ADME; details: mouse, rat, dog, monkey, and human microsomes; relative to verapamil
[7] = Radiation dose enhancement by compound 100; details: compound 100 treatment
[8] = rat, in vivo
[9] = rat, in vivo; remark: listed apart in the source
[10] = female rats, day 4, cited from earlier work
[11] = female dogs, day 4, cited from earlier work
[12] = male, SD, Liver-plasma concentration ratio of 100
[13] = male, SD, liver concentration of 100
[14] = male, SD, plasma concentration of 100
[15] = male, Sprague-Dawley, Liver-plasma concentration ratio of 100

## CN1CCN(C(=O)C2C3CCC(O3)C2C(=O)O)CC1 (centres unmarked) [Compound 100]
In vivo [1]; male, SD, 6 hr
  plasma concentration of 100: 3.25 ng/mL
In vivo [1]; [12]
  Kp at 0.25 hr: 4.1
  Kp at 1 hr: 4.98
In vivo [1]; [13]
  concentration at 0.25 hr: 2090 ng/g
  concentration at 1 hr: 1360 ng/g
  concentration at 2 hr: 425 ng/g
  concentration at 6 hr: 23.8 ng/g
In vivo [1]; [14]
  concentration at 0.25 hr: 510 ng/mL
  concentration at 1 hr: 273 ng/mL
  concentration at 6 hr: 3.25 ng/mL
In vivo [1]; male, Sprague-Dawley
  AUC(0-t) ratio of liver over plasma: 399
In vivo [1]; male, Sprague-Dawley, 6 hr
  Liver-plasma concentration ratio of 100: 7.32
In vivo [1]; [15]
  Kp at 2 hr: 4.95
  Kp at 6 hr: 7.32
In vivo [1]
  AUC(0-last) in liver: 2804 ng·h/g
  AUC(0-∞) in liver: 2834 ng·h/g
  AUClast-liver/AUClast-plasma of 100: 399
[2]; Sprague-Dawley (SD)
  Plasma Concentrations of 100: 5.10 ng/mL
[2]; Sprague-Dawley
  Plasma Concentrations of 100: 10.2 ng/mL
In vivo [3]; Sprague-Dawley
  half-life: ≤ 1 h
In vivo [3]; female, Sprague-Dawley, iv, 1.5 mg/kg
  mean Cmax in plasma: 1110 to 3664 ng/mL
In vivo [3]; iv
  detectability in liver and brain tissue samples: detectable
In vivo [3]; iv, 1.5 mg/kg
  AUClast in brain: 10.8 to 125.5 ng·h/g
  AUClast in liver: 758.6 to 9081.0 ng·h/g
[4]; slow iv 100 at 0.375 mg/kg
  inhibition of PP2A in circulating white blood cells: 9%
[4]; slow iv 100 at 0.75 mg/kg
  inhibition of PP2A in circulating white blood cells: 15%
[4]; slow iv 100 at 1.5 mg/kg
  inhibition of PP2A in circulating white blood cells: 25%
[5]
  IC50: 1000 to 3000 nM
U251 human GBM cells
  recurrence of the remaining 40% of xenografts vs radiation alone: two months later
U251 human GBM cells; daily for 5 days x 3 courses, 6 months plus follow-up
  xenografts eliminated: 60%
[6]
  stability in presence of microsomes: stable relative to verapamil
[7]
  radiation dose enhancement factor: 1.45
[8]
  oral bioavailability: 1%
  plasma level after oral administration: little is present in plasma after oral administration
[9]
  passage of blood brain barrier (BBB): does not readily pass the blood brain barrier (BBB)
[10]; 0.5 mg/kg
  % AUC* Extrapolated: 5.6%
  Co: 1497 ng/mL
  DN AUClast: 904
[10]; 0.75 mg/kg
  % AUC* Extrapolated: 27%
  Co: 2347 ng/mL
  DN AUClast: 921
[10]; 1.25 mg/kg
  % AUC* Extrapolated: 17%
  Co: 3849 ng/mL
  DN AUClast: 1887
[11]; 0.15 mg/kg
  Co: 566 ng/mL
[11]; 0.30 mg/kg
  Co: 857 ng/mL
[11]; 0.50 mg/kg
  Co: 1930 ng/mL
